ChEMBL document CHEMBL1201862, “PubChem BioAssay data set” (2004)
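96-well plates; 48 h exposure; 5 concentrations. Endpoints by linear interpolation between flanking doses. Not reached: highest tested concentration assigned. GI50 marks 50% less growth.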 Calls of active or inactive are those of the source. Cut-off read from the data, not from the text of the source: active = GI50 up to about 1.1 µM and inactive = higher.

Columns and labels:
Assay in all cases: NCI anticancer screen, dose series, 48 h
NCI/ADR-RES = system: NCI/ADR-RES
SK-MEL-5 = system: SK-MEL-5
MOLT-4 = system: MOLT-4
OVCAR-8 = system: OVCAR-8
CCRF-CEM = system: CCRF-CEM
HCC 2998 = system: HCC 2998
Malme-3M = system: Malme-3M
PC-3 = system: PC-3
SR = system: SR
NCI-H23 = system: NCI-H23
HOP-92 = system: HOP-92
UO-31 = system: UO-31
SF-268 = system: SF-268
NCI-H226 = system: NCI-H226
Hs-578T = system: Hs-578T
DU-145 = system: DU-145
SK-MEL-28 = system: SK-MEL-28
M14 = system: M14
MDA-N = system: MDA-N
A549 = system: A549

Measured: GI50

Clc1ccc(-c2nnc(-c3cccc4ccccc34)o2)cc1Cl
inactive: NCI/ADR-RES > 100 µM | SK-MEL-5 > 100 µM | MOLT-4 59.7 µM | OVCAR-8 > 100 µM | CCRF-CEM > 100 µM | HCC 2998 > 100 µM | Malme-3M > 100 µM | PC-3 > 100 µM | SR 40.3 µM | NCI-H23 > 100 µM | HOP-92 17.6 µM | UO-31 > 100 µM | SF-268 > 100 µM | NCI-H226 > 100 µM | Hs-578T > 100 µM | DU-145 > 100 µM | SK-MEL-28 > 100 µM | M14 > 100 µM | MDA-N > 100 µM | A549 > 100 µM

CN(C)CCn1c(=O)c2ccc(NCCCN(C)CCCNc3ccc4c(=O)n(CCN(C)C)c(=O)n5c6ccc([N+](=O)[O-])cc6c(=O)c3c45)c3c(=O)c4cc([N+](=O)[O-])ccc4n(c1=O)c23
active: NCI/ADR-RES 0.0802 µM | SK-MEL-5 < 0.0115 µM | MOLT-4 < 0.01 µM | OVCAR-8 < 0.01 µM | CCRF-CEM < 0.01 µM | HCC 2998 < 0.01 µM | Malme-3M 0.0594 µM | PC-3 < 0.01 µM | SR < 0.01 µM | NCI-H23 < 0.01 µM | HOP-92 < 0.0354 µM | UO-31 0.0129 µM | SF-268 0.0163 µM | NCI-H226 < 0.01 µM | Hs-578T 0.0178 µM | DU-145 < 0.01 µM | SK-MEL-28 0.0664 µM | M14 0.057 µM | MDA-N 0.0248 µM | A549 < 0.01 µM

NS(=O)(=O)c1ccc(NNc2c3ccccc3nc3ccccc23)cc1
inactive: NCI/ADR-RES 14 µM | SK-MEL-5 12.7 µM | MOLT-4 6.04 µM | OVCAR-8 11.8 µM | CCRF-CEM 6.28 µM | HCC 2998 12.2 µM | Malme-3M 11.2 µM | PC-3 11.5 µM | SR 10.8 µM | NCI-H23 13.6 µM | HOP-92 14.1 µM | UO-31 10.9 µM | SF-268 12.2 µM | NCI-H226 10.3 µM | Hs-578T 14.5 µM | DU-145 14.3 µM | SK-MEL-28 12 µM | M14 11.2 µM | MDA-N 12.9 µM | A549 15.3 µM

CN1CCN(C(=O)c2cn(Cc3cncn3Cc3ccc4c(c3)OCO4)cc2-c2cccc3ccccc23)CC1
inactive: NCI/ADR-RES 28.2 µM | SK-MEL-5 9.04 µM | MOLT-4 1.58 µM | OVCAR-8 31.6 µM | CCRF-CEM 4.71 µM | HCC 2998 10.6 µM | Malme-3M 3.33 µM | PC-3 15.6 µM | NCI-H23 12.2 µM | UO-31 7.66 µM | SF-268 18.5 µM | NCI-H226 58.1 µM | Hs-578T 23.2 µM | DU-145 37.4 µM | SK-MEL-28 4.83 µM | A549 16.9 µM
active: SR 0.0237 µM | HOP-92 1.03 µM | M14 0.273 µM | MDA-N 0.378 µM

COc1cc(OC)cc(Oc2nc3ccccc3nc2C(F)(F)F)c1
inactive: NCI/ADR-RES > 100 µM | SK-MEL-5 76.7 µM | MOLT-4 > 100 µM | OVCAR-8 > 100 µM | HCC 2998 > 100 µM | Malme-3M > 100 µM | PC-3 89.7 µM | SR 6.1 µM | NCI-H23 > 100 µM | HOP-92 42 µM | UO-31 > 100 µM | SF-268 68.4 µM | NCI-H226 > 100 µM | Hs-578T 72.1 µM | DU-145 > 100 µM | SK-MEL-28 > 100 µM | M14 53.8 µM | MDA-N 3.66 µM | A549 > 100 µM
active: CCRF-CEM 0.986 µM

CCCCCCCCC/C=C/C=C/C(=O)NCC(=O)NC1C(O)C(O)C(Nc2ncnc3[nH]cnc23)OC1C(O)CO (stereo not given)
inactive: CCRF-CEM 2.39 µM
active: NCI/ADR-RES < 0.01 µM | SK-MEL-5 0.0137 µM | MOLT-4 0.158 µM | OVCAR-8 0.00413 µM | HCC 2998 0.000509 µM | Malme-3M 0.00242 µM | PC-3 0.00023 µM | SR 0.0211 µM | NCI-H23 0.00869 µM | HOP-92 0.00468 µM | UO-31 0.00196 µM | SF-268 0.0143 µM | NCI-H226 0.00133 µM | Hs-578T 0.00432 µM | DU-145 0.00388 µM | SK-MEL-28 0.0695 µM | M14 0.0046 µM | MDA-N 0.0306 µM | A549 0.00397 µM
